# Data as given in paper PMC9230573 (Frontiers in Pharmacology, 2022).
# Where a SMILES comes first, the peptide text is derived from it. Bridges are numbered along the chain shown (N, C = ends).
# Biological target: human CaV2.2 (α1B, β3, α2δ1) (Homo sapiens, UniProt Q00975)
# Assay: cell-based
# Sequence of human CaV2.2 (α1B, β3, α2δ1) (Q00975 whole entry, looked up): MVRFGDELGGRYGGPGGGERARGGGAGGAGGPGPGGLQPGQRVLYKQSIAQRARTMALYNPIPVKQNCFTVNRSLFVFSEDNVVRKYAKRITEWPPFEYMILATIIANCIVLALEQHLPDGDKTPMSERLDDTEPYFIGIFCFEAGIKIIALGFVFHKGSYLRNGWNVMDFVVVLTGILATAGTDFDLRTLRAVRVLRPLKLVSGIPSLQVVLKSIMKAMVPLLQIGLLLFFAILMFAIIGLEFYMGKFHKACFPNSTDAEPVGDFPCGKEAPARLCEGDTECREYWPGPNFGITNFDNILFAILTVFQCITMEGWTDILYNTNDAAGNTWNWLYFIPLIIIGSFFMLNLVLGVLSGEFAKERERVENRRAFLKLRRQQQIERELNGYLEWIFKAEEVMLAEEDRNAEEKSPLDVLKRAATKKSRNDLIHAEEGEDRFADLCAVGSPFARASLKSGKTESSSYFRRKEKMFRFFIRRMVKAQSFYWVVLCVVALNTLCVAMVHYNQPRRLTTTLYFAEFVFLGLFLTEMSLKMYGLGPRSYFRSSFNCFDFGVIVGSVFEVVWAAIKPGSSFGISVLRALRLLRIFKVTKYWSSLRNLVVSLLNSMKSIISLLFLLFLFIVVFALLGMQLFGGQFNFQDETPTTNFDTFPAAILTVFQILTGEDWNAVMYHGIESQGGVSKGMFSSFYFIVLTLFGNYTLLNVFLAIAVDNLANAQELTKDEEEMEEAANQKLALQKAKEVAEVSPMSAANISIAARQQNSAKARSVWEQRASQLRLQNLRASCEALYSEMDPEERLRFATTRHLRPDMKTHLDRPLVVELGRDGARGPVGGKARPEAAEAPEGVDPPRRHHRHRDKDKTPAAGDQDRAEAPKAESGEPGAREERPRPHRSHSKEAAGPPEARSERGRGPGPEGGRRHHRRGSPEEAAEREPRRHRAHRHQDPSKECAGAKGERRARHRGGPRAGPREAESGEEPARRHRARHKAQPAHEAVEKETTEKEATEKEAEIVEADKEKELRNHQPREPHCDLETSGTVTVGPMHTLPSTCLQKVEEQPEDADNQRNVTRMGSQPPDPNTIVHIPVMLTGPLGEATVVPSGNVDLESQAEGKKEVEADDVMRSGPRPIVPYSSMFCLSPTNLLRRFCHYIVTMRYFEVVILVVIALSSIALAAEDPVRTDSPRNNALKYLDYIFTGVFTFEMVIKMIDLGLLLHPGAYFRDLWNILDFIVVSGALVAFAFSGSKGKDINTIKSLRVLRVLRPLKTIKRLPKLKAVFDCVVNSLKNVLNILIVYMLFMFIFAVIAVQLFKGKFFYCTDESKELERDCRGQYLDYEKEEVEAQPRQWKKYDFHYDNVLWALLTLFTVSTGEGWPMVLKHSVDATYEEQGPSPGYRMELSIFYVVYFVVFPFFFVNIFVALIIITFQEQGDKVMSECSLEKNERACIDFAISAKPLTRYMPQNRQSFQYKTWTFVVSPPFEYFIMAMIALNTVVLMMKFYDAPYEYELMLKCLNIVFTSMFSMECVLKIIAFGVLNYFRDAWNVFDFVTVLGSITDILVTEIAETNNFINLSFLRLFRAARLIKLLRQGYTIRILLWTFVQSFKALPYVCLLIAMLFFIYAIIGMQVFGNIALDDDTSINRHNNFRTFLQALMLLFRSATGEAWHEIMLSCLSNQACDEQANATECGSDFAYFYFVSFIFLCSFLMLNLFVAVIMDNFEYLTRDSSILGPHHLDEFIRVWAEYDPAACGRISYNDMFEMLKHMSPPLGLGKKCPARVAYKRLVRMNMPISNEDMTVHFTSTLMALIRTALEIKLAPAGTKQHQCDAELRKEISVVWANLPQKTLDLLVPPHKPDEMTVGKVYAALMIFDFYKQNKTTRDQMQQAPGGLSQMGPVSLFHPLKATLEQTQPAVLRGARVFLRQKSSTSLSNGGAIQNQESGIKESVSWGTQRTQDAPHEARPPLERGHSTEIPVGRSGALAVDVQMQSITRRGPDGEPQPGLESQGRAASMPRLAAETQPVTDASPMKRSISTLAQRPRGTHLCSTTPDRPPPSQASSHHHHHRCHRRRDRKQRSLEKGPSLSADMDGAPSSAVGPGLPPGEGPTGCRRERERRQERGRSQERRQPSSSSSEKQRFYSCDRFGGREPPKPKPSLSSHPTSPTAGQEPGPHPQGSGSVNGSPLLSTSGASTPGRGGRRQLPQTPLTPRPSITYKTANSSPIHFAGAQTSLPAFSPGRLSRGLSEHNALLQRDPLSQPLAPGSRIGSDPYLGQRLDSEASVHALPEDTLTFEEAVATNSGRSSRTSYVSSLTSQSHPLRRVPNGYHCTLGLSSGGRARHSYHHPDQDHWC
smiles,measurement,value
"CC[C@H](C)[C@@H]1NC(=O)[C@@H]2CCCN2C(=O)[C@@H]2CSSC[C@H](NC(=O)[C@@H](N)CC(N)=O)C(=O)N[C@@H](CSSC[C@@H](C(N)=O)NC(=O)[C@H](CC(N)=O)NC(=O)[C@H](Cc3ccccc3)NC(=O)[C@H](CCCNC(=N)N)NC(=O)[C@H](CO)NC(=O)[C@H](Cc3ccc(O)cc3)NC(=O)[C@H](CC(=O)O)NC1=O)C(=O)N[C@@H](CCSC)C(=O)N[C@@H](Cc1ccccc1)C(=O)N[C@@H](Cc1c[nH]cn1)C(=O)N[C@@H]([C@@H](C)O)C(=O)N2 [Vt1.27] (H-NCCMFHTCPIDYSRFNC-NH2; disulfide 2-8, 3-17)",IC50,398 nM
same,"half-maximum inactivation (V0.5, inact)",−69.0 ± 1.0 mV
same,"shift of half-maximum inactivation (V0.5, inact)",3 mV
same,τoff (off kinetics of inhibition),2.7 ± 0.15 s
same,τon (on kinetics of inhibition),4.5 ± 0.48 s
